From patent US6627651B1, “Cyclic compounds and uses thereof” (Takeda Chemical Industries, Ltd., priority 1999, dated 2003) come the findings set out here.

The structures appear in SMILES notation.

In one series the target is T1, human CCR5 (Homo sapiens, UniProt P51681).
T1 construct: expressed in transfected cells
T1 sequence (P51681 whole entry): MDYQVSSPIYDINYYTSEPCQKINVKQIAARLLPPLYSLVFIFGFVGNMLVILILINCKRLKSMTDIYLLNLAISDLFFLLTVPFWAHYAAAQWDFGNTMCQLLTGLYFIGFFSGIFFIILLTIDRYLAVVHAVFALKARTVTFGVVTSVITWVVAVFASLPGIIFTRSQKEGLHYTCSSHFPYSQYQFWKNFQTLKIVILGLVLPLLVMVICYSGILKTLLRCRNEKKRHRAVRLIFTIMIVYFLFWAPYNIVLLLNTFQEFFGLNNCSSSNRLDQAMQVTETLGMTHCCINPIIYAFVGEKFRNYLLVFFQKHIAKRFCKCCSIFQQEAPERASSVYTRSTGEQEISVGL
Briefly: CCR5-binding inhibition: [125I]-RANTES binding to CHO/CCR5 cells. Conditions: test compound 1 μM; ligand [125I]-RANTES 100 pM; CHO/CCR5 strains; room temperature, 30 minutes. The procedure:
After CHO-K1 cells, which were grown in a 750-ml, tissue culture flask (Beckton, Dickinson and Company) using Ham F12 medium (Nihon Pharmaceutical Co., Ltd.) containing 10% fetal calf serum (Life Technologies Oriental, Inc.), were removed from the flask with 0.5/L trypsin-0.2 g/L EDTA (Life Technologies Oriental, Inc.), the cells were washed with PBS (Life Technologies Oriental, Inc.), were centrifuged (1000 rpm, 5 minutes) and were suspended in PBS. Next, DNA was introduced into the cells by the use of Gene Pulser (Bio-Rad Laboratories Inc.) under the following conditions. In other words, 8×10^6 cells and 10 μg human CCR5 expression plasmid pCKR5 were added into a cuvette with a 0.4-cm gap, and the cells were electroporated at 0.25 kV under a capacitance of 960 μF. Subsequently, the cells were transferred to Ham F12 medium containing 10% fetal calf serum, and were cultivated for 24 hours. The cells were then removed from the flask again for centrifugation, were then suspended in Ham F12 medium containing 10% fetal serum albumin containing geneticin (Life Technologies Oriental, Inc.) at a final concentration of 500 μg/ml, were diluted to 10^4 cells/ml and were seeded into 96-well plates (Beckton, Dickinson and Company) to obtain geneticin-resistant strains.
Next, after the thus-obtained geneticin-resistant strains were cultivated in a 96-well plate (Beckton, Dickinson and Company), cells expressing CCR5 were selected from the resistant strains. In other words, the binding reaction was carried out at room temperature for 40 minutes in an assay buffer (Ham F12 medium containing 0.5% BSA and 20 mM HEPES (Wako Pure Chemical Industries, Ltd.)) that is supplemented with 200 pM [^125I]-RANTES (Amersham plc) as a ligand, and the cells were washed with ice-cold PBS, were then stirred after adding 50 μl/well of 1M NaOH and were counted for radioactivity in a γ-counter to select CHO/CCR5 strains, the cells to which the ligand was specifically bound.
CHO/CCR5 strains were seeded into 96-well microplates at a density of 5×10^4 cells/well, and were cultivated for 24 hours. After the culture fluid was removed by suction, the assay buffer containing a test compound (1 μM) was added to each well, and a ligand [^125I]-RANTES (Amersham Corporation) was added to a final concentration of 100 pM, after which the reaction was carried out at room temperature for 30 minutes. Next, after the assay buffer was removed by suction, the cells were washed twice with ice-cold PBS. Subsequently, 200 μl of MicroScint-20 (Packard Industry Company, Inc.) was added to each well, which was counted for radioactivity in a Top Count (Packard Industry Company, Inc.).
Percentages of CCR5-binding inhibition by test compounds were determined according to the method described above.
As to `CCCOc1ccc(CCOc2ccc3c(c2)C=C(C(=O)Nc2ccc(CN(C)C4CCOCC4)cc2)CCS3(=O)=O)cc1` [Compound 19, N-[4-[N-methyl-N-(tetrahydropyran-4-yl)aminomethyl]phenyl]-7-[4-(propoxyphenethyl)oxy]-1,1-dioxo-2,3-dihydro-1-benzothiepine-4-carboxamide], the “Inhibition of binding (%)” value is given as 86%.
As for `Cc1ccc(-c2ccc3c(c2)C=C(C(=O)Nc2ccc(CC4=NCCN4)cc2)CCO3)cc1` [Compound 94], the “Inhibition of binding (%)” value was determined as 76%.
Molecule `Cc1ccc(-c2ccc3c(c2)C=C(C(=O)NC2CCN(C4CCOCC4)CC2)CCO3)cc1` [Compound 56, N-(1-(tetrahydropyran-4-yl)piperidin-4-yl)-7-(4-methylphenyl)-2,3-dihydro-1-benzooxepine-4-carboxamide] displayed an inhibition at 1 µM of 74%.
In turn, `CCCOc1ccccc1COc1ccc2c(c1)C=C(C(=O)Nc1ccc(CN(C)C3CCOCC3)cc1)CCS2(=O)=O` [Compound 21, N-[4-[N-methyl-N-(tetrahydropyran-4-yl)aminomethyl]phenyl]-7-[(2-propoxybenzyl)oxy]-1,1-dioxo-2,3-dihydro-1-benzothiepine-4-carboxamide] returned an inhibition at 1 µM of 98%.
With `CCCOc1cccc(COc2ccc3c(c2)C=C(C(=O)Nc2ccc(CN(C)C4CCOCC4)cc2)CCS3(=O)=O)c1` [Compound 20], the “Inhibition of binding (%)” value is given as 94%.
With `CCCOc1ccc(CCCOc2ccc3c(c2)C=C(C(=O)Nc2ccc(CN(C)C4CCOCC4)cc2)CCS3(=O)=O)cc1` [Compound 121, N-[4-[[N-methyl-N-(tetrahydropyran-4-yl)amino]methyl]phenyl]-7-[3-(4-propoxyphenyl)propoxy]-1,1-dioxo-2,3-dihydro-1-benzothiepine-4-carboxamide], at 1 µM the inhibition was 82%.
For the molecule `CCCOc1ccc(COc2ccc3c(c2)C=C(C(=O)Nc2ccc(CN(C)C4CCOCC4)cc2)CCS3(=O)=O)cc1` [Compound 100], the “Inhibition of binding (%)” value came to 89%.
In turn, `CCCOCCOc1ccc(COc2ccc3c(c2)C=C(C(=O)Nc2ccc(CN(C)C4CCOCC4)cc2)CCS3(=O)=O)cc1` [Compound 108, N-[4-[[N-methyl-N-(tetrahydropyran-4-yl)amino]methyl]phenyl]-7-[[4-(2-propoxyethoxy)benzyl]oxy]-1,1-dioxo-2,3-dihydro-1-benzothiepine-4-carboxamide] yielded an inhibition at 1 µM of 86%.

Test system in a further series: not given
Assay: not given
Details: not given
As to `Cc1ccc(-c2ccc3c(c2)C=C(C(=O)NC2CCN(C4CCOCC4)CC2)CCO3)cc1` [Compound 56, N-(1-(tetrahydropyran-4-yl)piperidin-4-yl)-7-(4-methylphenyl)-2,3-dihydro-1-benzooxepine-4-carboxamide], the melting point was 199 to 204 °C (dec.).
With `CCCOc1ccccc1COc1ccc2c(c1)C=C(C(=O)Nc1ccc(CN(C)C3CCOCC3)cc1)CCS2(=O)=O` [Compound 21, N-[4-[N-methyl-N-(tetrahydropyran-4-yl)aminomethyl]phenyl]-7-[(2-propoxybenzyl)oxy]-1,1-dioxo-2,3-dihydro-1-benzothiepine-4-carboxamide], the melting point is 190 to 192 °C.
Consider `CCCOCc1ccccc1Oc1ccc2c(c1)C=C(C(=O)Nc1ccc(CN(C)C3CCOCC3)cc1)CCS2(=O)=O` [Compound 115, N-[4-[[N-methyl-N-(tetrahydropyran-4-yl)amino]methyl]phenyl]-7-(2-propoxymethylphenoxy)-1,1-dioxo-2,3-dihydro-1-benzothiepine-4-carboxamide], for which the melting point is 162 to 164 °C.
In the case of `CCCOc1ccc(CCCOc2ccc3c(c2)C=C(C(=O)Nc2ccc(CN(C)C4CCOCC4)cc2)CCS3(=O)=O)cc1` [Compound 121, N-[4-[[N-methyl-N-(tetrahydropyran-4-yl)amino]methyl]phenyl]-7-[3-(4-propoxyphenyl)propoxy]-1,1-dioxo-2,3-dihydro-1-benzothiepine-4-carboxamide], the melting point fell in the range of 178 to 181 °C.
`Cc1ccc(-c2ccc3cc(C(=O)Nc4ccc(CN(C)C5CCOCC5)cc4)[nH]c3c2)cc1` [Compound 23, 6-(4-methylphenyl)-N-[4-[N-methyl-N-(tetrahydropyran-4-yl)aminomethyl]phenyl]-1H-indole-2-carboxamide] yielded a melting point of 246 to 250 °C.
As for `CCCOCCOc1ccc(COc2ccc3c(c2)C=C(C(=O)Nc2ccc(CN(C)C4CCOCC4)cc2)CCS3(=O)=O)cc1` [Compound 108, N-[4-[[N-methyl-N-(tetrahydropyran-4-yl)amino]methyl]phenyl]-7-[[4-(2-propoxyethoxy)benzyl]oxy]-1,1-dioxo-2,3-dihydro-1-benzothiepine-4-carboxamide], the melting point was in the range of 175 to 176 °C.
As for `Cc1ccc(-c2ccc3c(c2)C=C(C(=O)N[C@H]2CC[C@H](CN(C)C4CCOCC4)CC2)CCC3)cc1` [Compound 64, trans-2-(4-methylphenyl)-N-[4-[N-methyl-N-(tetrahydropyran-4-yl)aminomethyl]cyclohexyl]-6,7-dihydro-5H-benzocycloheptene-8-carboxamide], the melting point was in the range of 163 to 165 °C.
`CN(Cc1ccc(NC(=O)C2CCS(=O)(=O)c3ccc(OCc4ccc(F)cc4)cc3C2)cc1)C1CCOCC1` (stereo not shown) [Compound 3, 7-(4-fluorobenzyloxy)-N-[4-[N-methyl-N-(tetrahydropyran-4-yl)aminomethyl]phenyl]-1,1-dioxo-3,4-dihydro-1-benzothiepine-4-carboxamide] displayed a melting point of 232 to 234 °C.
As for `Cc1ccc(-c2ccc3c(c2)C=C(N(C)c2ccc(CN(C)C4CCOCC4)cc2)CCO3)cc1` [Compound 34, N-[4-[(N-methyl-N-(tetrahydropyran-4-yl)aminomethyl)]phenyl]-N-[7-(4-methylphenyl)-2,3-dihydro-1-benzooxepin-4-yl]methylamine], the melting point was 158 to 160 °C.
Take `CCCOCCOc1ccccc1COc1ccc2c(c1)C=C(C(=O)Nc1ccc(CN(C)C3CCOCC3)cc1)CCS2(=O)=O` [Compound 99, N-[4-[[N-methyl-N-(tetrahydropyran-4-yl)amino]methyl]phenyl]-7-[[2-(2-propoxyethoxy)benzyl]oxy]-1,1-dioxo-2,3-dihydro-1-benzothiepine-4-carboxamide]: the melting point lay within 136 to 138 °C.
Turning to `CCCOCCOc1ccc(COc2ccc3c(c2)C=C(C(=O)Nc2ccc(CN(C)C4CCOCC4)cc2)CCS3(=O)=O)cc1OCC` [Compound 110, 7-[[3-ethoxy-4-(2-propoxyethoxy)benzyl]oxy]-N-[4-[[N-methyl-N-(tetrahydropyran-4-yl)amino]methyl]phenyl]-1,1-dioxo-2,3-dihydro-1-benzothiepine-4-carboxamide], the melting point lay in the range of 146 to 147 °C.
On to `Cc1ccc(-c2ccc3c(c2)C=C(C(=O)NC2CCN(C)CC2)CCO3)cc1` [Compound 61, N-(1-methylpiperidin-4-yl)-7-(4-methylphenyl)-2,3-dihydro-1-benzooxepine-4-carboxamide], for which the melting point lay within 180 to 182 °C.
In turn, `Cc1ccc(-c2ccc3c(c2)C=C(C(=O)NC2CCN(CCC4CCCCC4)CC2)CCO3)cc1` [Compound 60, N-(1-(2-cyclohexylethyl)piperidin-4-yl)-7-(4-methylphenyl)-2,3-dihydro-1-benzooxepine-4-carboxamide] displayed a melting point of 193 to 196 °C.
Still for that read-out and setting: in the case of `Cc1ccc(COc2cccc(C(=O)Nc3ccc(CN4CCCCC4)cc3)c2)cc1` [Compound 85, 3-(4-methylbenzyloxy)-4′-(piperidinomethyl)benzanilide] it was 153 to 155 °C; in that of `CCCc1ccc(Oc2ccc3c(c2)C=C(C(=O)Nc2ccc(CN(C)C4CCOCC4)cc2)CCS3(=O)=O)cc1` [Compound 113, N-[4-[[N-methyl-N-(tetrahydropyran-4-yl)amino]methyl]phenyl]-7-(4-propylphenoxy)-1,1-dioxo-2,3-dihydro-1-benzothiepine-4-carboxamide], 147 to 149 °C; in that of `CCCOc1cccc(CCOc2ccc3c(c2)C=C(C(=O)Nc2ccc(CN(C)C4CCOCC4)cc2)CCS3(=O)=O)c1` [Compound 105, N-[4-[[N-methyl-N-(tetrahydropyran-4-yl)amino]methyl]phenyl]-7-[(3-propoxyphenethyl)oxy]-1,1-dioxo-2,3-dihydro-1-benzothiepine-4-carboxamide], 153 to 154 °C.
In the case of `CCOCCOc1ccc(COc2ccc3c(c2)C=C(C(=O)Nc2ccc(CN(C)C4CCOCC4)cc2)CCS3(=O)=O)cc1` [Compound 107, N-[4-[[N-methyl-N-(tetrahydropyran-4-yl)amino]methyl]phenyl]-7-[[4-(2-ethoxyethoxy)benzyl]oxy]-1,1-dioxo-2,3-dihydro-1-benzothiepine-4-carboxamide], the melting point lay in the range of 185 to 187 °C.
In the case of `CN(Cc1ccc(NC(=O)C2=Cc3cc(OCc4ccccc4Cl)ccc3S(=O)(=O)CC2)cc1)C1CCOCC1` [Compound 103, 7-[(2-chlorobenzyl)oxy]-N-[4-[[N-methyl-N-(tetrahydropyran-4-yl)amino]methyl]phenyl]-1,1-dioxo-2,3-dihydro-1-benzothiepine-4-carboxamide], the melting point was 205 to 207 °C.
The same measure, in the same setting: as for `Cc1ccc(C2=Cc3cc(C(=O)Nc4ccc(CN(C)C5CCOCC5)cc4)ccc3OC2)cc1` [Compound 22, 3-(4-methylphenyl)-N-[4-[N-methyl-N-(tetrahydropyran-4-yl)aminomethyl]phenyl]-2H-1-benzopyran-6-carboxamide], the figure is 230 to 235 °C; as for `COc1cccc(COc2ccc3c(c2)C=C(C(=O)Nc2ccc(CN(C)C4CCOCC4)cc2)CCS3(=O)=O)c1` [Compound 117, 7-(3-methoxybenzyloxy)-N-[4-[[N-methyl-N-(tetrahydropyran-4-yl)amino]methyl]phenyl]-1,1-dioxo-2,3-dihydro-1-benzothiepine-4-carboxamide], 181 to 185 °C.
